3 compounds from patent publication US7579344B2, “Pyrimidine derivatives possessing cell-cycle inhibitors activity” (Astrazeneca AB, priority 2003, dated 2009) can be followed below.

pIC50: −log10 of the molar value.

The assay has as its target T1, CDK2/Cyclin E (Homo sapiens, UniProt P24941).
T1 construct: The open reading frames of CDK2 and Cyclin E were isolated; made in house; host or cells: Sf21 (Spodoptera frugiperda) insect cells, baculovirus co-infection; the GST-Rb substrate was made in E. coli BL21 (DE3) pLysS
Description: in vitro kinase Scintillation Proximity Assay, incorporation of [γ-33-P]-ATP into GST-Rb. Format: biochemical. The settings on record: GST-Rb substrate, 0.2 μM ATP, 60 minutes at room temperature. As to the method: The compounds were tested in an in vitro kinase assay in 96 well format using Scintillation Proximity Assay (SPA - obtained from Amersham) for measuring incorporation of [γ-33-P]-Adenosine Triphosphate into a test substrate (GST-Retinoblastoma protein; GST-Rb). In each well was placed the compound to be tested (diluted in DMSO and water to correct concentrations) and in control wells either roscovitine as an inhibitor control or DMSO as a positive control.
Approximately 0.2 μl of CDK2/Cyclin E partially-purified enzyme (amount dependent on enzyme activity) diluted in 25 μl incubation buffer was added to each well then 20 μl of GST-Rb/ATP/ATP33 mixture (containing 0.5 μg GST-Rb and 0.2 μM ATP and 0.14 μCi [γ-33-P]-Adenosine Triphosphate in incubation buffer), and the resulting mixture shaken gently, then incubated at room temperature for 60 minutes.
To each well was then added 150 μL stop solution containing (0.8 mg/well of Protein A-PVT SPA bead (Amersham)), 20 pM/well of Anti-Glutathione Transferase, Rabbit IgG (obtained from Molecular Probes), 61 mM EDTA and 50 mM HEPES pH 7.5 containing 0.05% sodium azide.
The plates were sealed with Topseal-S plate sealers, left for two hours then spun at 2500 rpm, 1124 xg., for 5 minutes. The plates were read on a Topcount for 30 seconds per well.
The incubation buffer used to dilute the enzyme and substrate mixes contained 50 mM HEPES pH7.5, 10 mM MnCl2, 1 mM DTT, 100 μM Sodium vanadate, 100 μM NaF, 10 mM Sodium Glycerophosphate, BSA (1 mg/ml final).
In this assay only part of the retinoblastoma protein (Science 1987 Mar. 13;235(4794):1394-1399; Lee W. H., Bookstein R., Hong F., Young L. J., Shew J. Y., Lee E. Y.) was used, fused to a GST tag. […]
The open reading frames of CDK2 and Cyclin E were isolated by reverse transcriptase-PCR using HeLa cell and activated T cell mRNA as a template and cloned into the insect expression vector pVL1393 (obtained from Invitrogen 1995 catalogue number: V1392-20). […]
Background: Scintillation proximity formats need no separation of bound from free tracer.

As usually defined, the pIC50 is −log10 of the IC50, conventionally taken in molar units. A higher pIC50 goes with a low IC50. Take `c1ccc(Nc2nccc(-c3cnc4n3CCCC4)n2)cc1` [Example 2, 2-anilino-4-(5,6,7,8-tetrahydroimidazo[1,2-a]pyridin-3-yl)pyrimidine]: the pIC50 was 7.68. `c1ccc(Nc2nccc(-c3cnc4n3CCOC4)n2)cc1` [Example 5, 2-Anilino-4-(5,6-dihydro-8H-imidazo[2,1-c][1,4]oxazin-3-yl)pyrimidine] had a pIC50 of 7.38. Compound `COCCNS(=O)(=O)c1ccc(Nc2nccc(-c3cnc4n3CCOC4)n2)cc1` [Example 9] had a negative logarithm of the IC50 (pIC50) of 7.89.
